The test system of one assay is D54-MG. Nature of the assay: Chemotherapeutic agent cytotoxicity, CCK-8 assay. Particulars: two to five days treatment. The assay is classed as cell-based, Human. The protocol: (§1) A tissue culture method was optimized to test the effects of various chemotherapeutic agents on multiple cancer cell lines (see Table 1). Cells were plated on 96-well microtiter tissue culture plates at a density of approximately 1000-2000 cells per well, depending on the specific cell line. Cells were allowed to adhere twenty-four hours in a 37° C., humidified cell culture incubator supplied with five percent carbon dioxide. In order to achieve a dose-response curve for each drug in each cell line, cells were treated with decreasing concentrations of a specific cytotoxic compound for two to five days. Following treatment, the cytotoxic effect of the drug was quantified using the Cell Counting Kit-8 (CCK-8) (Dojindo Inc.) according to the manufacturer's instructions. In brief, following the treatment period with the cytotoxic drug, cells were incubated with CCK-8 reagent and incubated at 37° C. for one to four hours, depending on the specific cell type. After incubation, plates were read on a microplate reader at a wavelength of 490 nm. The IC50 of each drug was calculated from a X-Y scatter plot of the negative log concentration of drug versus mean optical density (Table 2).
(Tetrazolium dyes change colour on reduction, which living cells bring about.)

Another assay relates to SKMEL28. The assay is described as follows: Chemotherapeutic agent cytotoxicity, CCK-8 assay. The assay is classed as cell-based, Human. To be noted: two to five days treatment. As for the experimental part:
as §1

A further assay deals with U251. Nature of the assay: Chemotherapeutic agent cytotoxicity, CCK-8 assay. The assay is classed as cell-based. Particulars: Homo sapiens, U-251, 120 h, two to five days treatment. The protocol:
as §1

A further assay has as its system SKMEL31. The assay is described as follows: Chemotherapeutic agent cytotoxicity, CCK-8 assay. The assay is classed as cell-based. To be noted: Homo sapiens, 120 h, two to five days treatment. As for the experimental part: as §1
In the next assay the test system is PC-3. The assay is described as follows: Chemotherapeutic agent cytotoxicity, CCK-8 assay. Particulars: Homo sapiens, 120 h, two to five days treatment. The assay is classed as cell-based. The protocol:
as §1

The next assay deals with U251 glioma flank tumors. The assay is described as follows: Temodar plus chlorotoxin in glioma flank tumor model. Particulars: i.p., temodar 13.2 mg/kg, chlorotoxin 0.080 mg/kg. The assay is classed as in vivo, Nude mice. As for the experimental part:
The purpose of this study was to determine whether hydroxyurea or temodar combined with chlorotoxin were sufficient to inhibit tumor growth as indicated from in vitro studies with glioma cell lines. […] Combination treatment with chlorotoxin with hydroxyurea or temodar in mice with glioma flank tumors was compared to the treatment group of hydroxyurea or temodar alone and saline alone. Hydroxyurea and temodar dosage was based on the lowest dosage (10 mg/kg body weight) used in previous studies to determine clearance from the body in the treatment of sickle cell disease paradigm in nude mice (Iyamu et al. (2001) Chemotherapy 47, 270-278). […]
Mice with established flank tumors were each treated with 0.100 ml injection (i.p) of sterilized solutions consisting of either of saline, saline and hydroxyurea or temodar (13.2 mg/kg body weight), or saline, hydroxyurea or temodar (13.2 mg/kg) and chlorotoxin (0.080 mg/kg body weight). Tumor volume was calculated based on the measurements with the same set of calipers on the indicated days by determining the length×width×height of the tumor of non-anesthetized mice. […] Statistical significance was determined according to a one-way ANOVA test.

A further assay deals with U251 and PC3 cells. To be noted: alanine-substituted 9-mers versus native 9-mer.
The next assay concerns crayfish. Nature of the assay: Crayfish paralysis assay. Type of assay: in vivo. To be noted: 10-mer peptides.
A further assay relates to D54MG Glioblastoma cells. Particulars: for ^3H-Thymidine uptake ± SD (CPM): 24 hours incubation. The protocol: The purpose of this experiment was to determine if the proliferation D54MG Glioblastoma cells, as measured by ^3H-thymidine uptake, is effected by Peptide 21, a segment of the full chlorotoxin sequence. The sequence of peptide 21 and its relation to chlorotoxin is shown in the sequence below:
D54MG cells were plated in a 24 well plate at 100,000 cells/ml/well using five rows of four wells for each concentration. The cells were allowed to adhere in normal media for twenty-four hours at 37° C. and 5% carbon dioxide. TM-701 was diluted to a […] stock solution and added to each row at the concentrations of 0, 20, 80, 160 and 320 nM.
The cells and peptide 21 were allowed to incubate for 24 hours at 37° C. and 5% carbon dioxide. After twenty-four hours, the cells were rinsed two times with warm PBS. Normal media was added back to the cells at 1 ml/well. One μCi of ^3H-thymidine was added to each well (1 μl of 1 mCi/ml ^3H-thymidine to each well). The plate was incubated for two hours at 37° C. The media and thymidine were removed and the wells were rinsed with ice-cold phosphate-buffered saline three times. To each well was added 1 ml of 0.3 N NaOH. The plate was incubated in the 37° C. incubator for thirty minutes. Each well of 0.3 N NaOH was pipetted up and down three to four times and removed from the plate and the solution was placed in scintillation vials for counting. Scintillation fluid at four times the amount of sample was added to the vials (4 ml). Each vial was counted on the scintillation counter for one minute.

Assay [1] concerns PC3 human prostate cancer cells. The assay is classed as binding. From the text:
In order to compare binding of the short scorpion toxins, the regions homologous to peptide 21 of small toxin and probable toxin LQH-8/6 were synthesized and biotinylated for analysis in the chlorotoxin binding assay (see Table 8 for amino acid sequences of the peptides).

Setting [2] is: Homo sapiens, D54MG, 120 h, read-out: IC50.
The mark [3] stands for this setting: Homo sapiens, SK-MEL-28, 120 h, read-out: IC50.
Setting [4] is: PC3 cells, biotinylated peptides.

Read-outs that look alike come from different tables or passages of the source. Ends that are not written are not given here. * marks the point of attachment. Biotin = O=C1N[C@H]2[C@H](CS[C@H]2CCCCC(=O)*)N1

As to `O=c1[nH]cc(F)c(=O)[nH]1` [5-Fluorouracil, fluorouracil], the IC50 – broadly, the midpoint of a concentration-inhibition curve – in the assay with D54-MG (setting [2]) was 1.5 µg/mL.

For the molecule `N.N.[Cl][Pt][Cl]` [Cisplatin, cis-diamminedichloroplatinum], the 50% inhibitory concentration (IC50) with D54-MG was 10 µg/mL; in the assay with SKMEL28, 8000 ng/mL.

As for `COc1cccc2c1C(=O)c1c(O)c3c(c(O)c1C2=O)C[C@@](O)(C(=O)CO)C[C@@H]3O[C@H]1C[C@H](N)[C@H](O)[C@H](C)O1` [Doxorubicin, hydroxyl daunorubicin], the IC50 stood at 0.06 µg/mL in the assay with D54-MG (setting [2]), 40 ng/mL in the assay with SKMEL28 (setting [3]), 0.03 µg/mL with U251 and 0.035 µg/mL in the assay on SKMEL31.

`NC(=O)NO` [Hydroxyurea, hyroxycarbamide] registered an IC50 in the assay on PC-3 of 35 mM.

Take `CC(=O)O[C@H]1C(=O)[C@@]2(C)[C@H]([C@H](OC(=O)c3ccccc3)[C@]3(O)C[C@H](OC(=O)[C@H](O)[C@@H](NC(=O)c4ccccc4)c4ccccc4)C(C)=C1C3(C)C)[C@]1(OC(C)=O)CO[C@@H]1C[C@@H]2O` [Paclitaxel, paclitaxel]: the IC50 in the assay on D54-MG (setting [2]) is 0.0105 µM; in the assay with U251, 0.008 µM; in the assay with SKMEL31, 0.025 µM.

For `Cn1nnc2c(C(N)=O)ncn2c1=O` [Temodar, temozomide], the “growth of the xenografted tumor (percent change of tumor volume)” value with U251 glioma flank tumors is on record as “little effect”. The IC50 was found to be 120 µM with D54-MG (setting [2]), 30 µM in the assay with SKMEL28 (setting [3]), 150 µM in the assay with U251 and 150 µM with SKMEL31.

On to Biotin-TDHAMARKS [Peptide 21a-A4], for which the “binding of the peptide to cells” value with U251 and PC3 cells is given as “may be equal to or greater than chlorotoxin itself”.

In the case of Biotin-TTDHQMARKS [peptide 21], the paralysis of crayfish result with crayfish is “effective”. Also, in the assay on D54MG Glioblastoma cells (0 to 320 nM), the “uptake of ^3H-thymidine, dose dependence” value is reported as “decreases in a does-dependent manner”. Also, the “^3H-Thymidine uptake ± SD (CPM)” value in the assay with D54MG Glioblastoma cells (20 nM) came to 7795 ± 634 CPM; with D54MG Glioblastoma cells (80 nM), 7412 ± 630 CPM; with D54MG Glioblastoma cells (160 nM), 6983 ± 329 CPM; in the assay on D54MG Glioblastoma cells (320 nM), 5782 ± 886 CPM. In addition, in [1], the binding is 232.50 % of background levels.

With “TTDPQMSKK [Peptide 21ST, biotinylated region of small toxin homologous to peptide 21]”, the binding in assay [1] (setting [4]) is 225.26 % of background levels.

For the molecule “TTDQQMTKK [Peptide 21LQ, biotinylated region of probable toxin LQH-8/6 homologous to peptide 21]”, the binding in [1] (setting [4]) was 242.32 % of background levels.

For “negative peptide (GKCYGPQCLC; Chlorotoxin; listed as Leiurus quinquestriatus)”, in assay [1] (setting [4]), the binding was 110 % of background levels.

The record behind these values is patent US20060088899A1, “Combination chemotherapy with chlorotoxin” (priority 2002, published 2006).
